From the METLIN SMRT retention time set (Domingo-Almenara et al. 2019)

Test: gradient 5% acetonitrile 3 min, to 50% in 2 min, to 85% in 15 min, held 3 min, 100 µL/min
Details: column: Zorbax Extend-C18 2.1 x 50 mm; eluents: water / acetonitrile, 0.1% formic acid
Procedure, shortened: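 Standards, all pure, were combined into mixtures of ~100 molecules and run at 100 μL/min on a Zorbax Extend-C18 column (2.1 × 50 mm, 1.8 μm) with water and acetonitrile, each containing 0.1% formic acid. A coupled quadrupole time-of-flight mass spectrometer operated in positive and negative ionization mode. Retention time values come from computationally picked adduct peaks, each inspected manually.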

| SMILES | RP-LC retention time [s] |
| --- | --- |
| COc1ccc(Cl)cc1S(=O)(=O)N1CCC(C(=O)NCc2cccnc2)CC1 | 625 |
| CCOC(=O)C1CCN(C(=O)c2nc(N3CCCC3)c3c(C)cc(C)nc3n2)CC1 | 631 |
| O=C(CCC1CCN(c2cc(NC3CC3)ncn2)CC1)NCc1ccccc1F | 673 |
| O=C(COc1ccc(Cl)cc1)N1CCN(CC(F)(F)F)CC1 | 853 |
| COc1ccc(NC(=O)C2CCCN2S(=O)(=O)c2ccc3c(c2)N(C(C)=O)CCO3)cc1 (stereo not drawn) | 762 |
| O=C(Nc1ccccc1C(F)(F)F)N1CCC(n2cnnc2C2CC2)C1 (stereo not drawn) | 640 |
| COc1ccccc1OCCNC(=O)C1CCN(c2nnc3ccc(Cl)cn23)CC1 | 707 |
| COc1ccc(CNC(=O)c2cn3ccccc3n2)c(OC)c1 | 658 |
| O=C(NCC1CCCO1)N1CCc2[nH]nc(-c3ccccc3)c2C1 (stereo not drawn) | 644 |
| Nc1ncnc(Nc2ccc(Cl)cc2)n1 | 704 |
| Cc1cc(NC(=O)Cn2nc(C(=O)N3CCCC3)c3ccccc32)ccc1Br | 948 |
| O=C(NCCc1csc2nc(-c3cccs3)nn12)c1ccc(Br)o1 | 769 |
| Cc1cc(OCC(=O)NCc2ccc(Cl)cc2)nc(N2CCN(c3ccccc3)CC2)n1 | 868 |
| CCOc1ccc(-c2ccnc3c(C(=O)Nc4cc(C)cc(C)c4)cnn23)cc1 | 1320 |
| CCOC(=O)c1[nH]c(C)c(CCC(=O)N2CCC(C(=O)NCCc3ccccc3OC)CC2)c1C | 812 |
| CCOc1ccc(NC(=O)N2CCC(c3nc(C(=O)N4CCCC4)c(C)o3)CC2)cc1 | 764 |
| CCOc1ccc(Nc2c(-c3nc(C)no3)cnc3nc(C)ccc23)cc1 | 778 |
| Cc1c(Br)cc(C(=O)NC(C)C)c(C)c1C | 838 |
| O=C(Nc1ccccc1)C(=O)Nc1ccccc1[N+](=O)[O-] | 917 |

| SMILES | RP-LC retention time [s] |
| --- | --- |
| COc1cc(NC(=O)N2CCOc3ccc(Cl)cc32)cc(OC)c1OC | 899 |
| CSc1nc(C)c(Br)c(N2CC2)n1 | 596 |
| Cc1ccc(C)c(NC(=O)Cn2cnc(-c3noc(-c4ccncc4)n3)c2)c1 | 687 |
| N#Cc1ccc(N2C=C(C(=O)N3CCOCC3)S(=O)(=O)c3ccc(Cl)cc32)cc1 | 764 |
| Cc1ccc2nc(Cl)cc(=O)n2c1 | 740 |
| COc1ccc(-c2nc(-c3nnn(-c4ccccc4)c3C)no2)cc1OC | 892 |
| CC(=O)c1ccc(NC(=O)Cn2c(-c3ccc(Cl)cc3)nc(C)cc2=O)cc1 | 1040 |
| CCCCOc1ccc(-c2cc3c4nnc(CCC(=O)N5CCN(C(C)C)CC5)n4ccn3n2)cc1 | 692 |
| CCn1cc(CN2CC(Oc3ccc(-c4noc(-c5ccncc5)n4)cc3)C2)cn1 | 633 |
| CCOC(=O)c1noc2ncnc(Nc3ccccc3CC)c12 | 948 |
| CCN1CCN(CCNC(=O)Cn2c(=O)n(-c3ccc(F)cc3)c3ncccc32)CC1 | 583 |
| Cc1cccc(NC(=O)c2ccc(=O)n(C)n2)n1 | 595 |
| Cn1cc(S(=O)(=O)N2CCC(C(=O)NC3CCCC3)CC2)cc1C(=O)N1CCCCC1 | 732 |
| CCC(C)(C)NC(=O)c1c(C)oc2ccn(Cc3ccc(F)cc3)c(=O)c12 | 1140 |
| Cc1ccc(-c2[nH]ncc2CN)cc1 | 562 |
| COc1cccc(-n2nnc(-c3nc(-c4ccccc4OC)cs3)c2N)c1 | 1120 |
| CCOCCOC1CCN(C(=O)c2cccs2)CC1 | 725 |
| COC(=O)c1ccccc1NC(=O)c1noc2c1CCC2 | 1110 |
| Cc1ccc(-c2csc3c(=O)n(CC(=O)NC4CCCC4)cnc23)cc1 | 912 |

Next, values leading:

| RP-LC retention time [s] | SMILES |
| --- | --- |
| 1170 | Cc1ccc(-c2noc(-c3cccc(S(=O)(=O)NCc4ccc(C)o4)c3)n2)cc1 |
| 649 | COc1ccc(Cl)c2c(=O)c3c([nH]c12)CCN(CC(=O)Nc1cc(C)ccc1C)C3 |
| 681 | Cc1cc2n(n1)CCC(=O)N2CCCC(=O)N(C)Cc1ccccc1 |
| 627 | Cc1ccc(S(=O)(=O)N2CCC(CCC(=O)N3CCN(C)CC3)CC2)cc1 |
| 977 | O=C1CC(c2nc(-c3ccccc3F)no2)CN1c1cccc(Cl)c1 (stereo not drawn) |
| 733 | Cn1c(=O)n([C@@H]2CCN(C(=O)CCc3nc4ccccc4s3)C2)c2ncccc21 |
| 686 | Cc1ccc(F)cc1NC(=O)Cn1cnc2nc(N3CCCC(C(=O)NC4CC4)C3)sc2c1=O (stereo not drawn) |
| 634 | O=C(NC1CC1)C1CCCN(C(=O)c2ccccc2F)C1 (stereo not drawn) |
| 757 | COCc1c(C(=O)O)nnn1-c1ccc(C)c(C)c1 |
| 583 | CCOCC(=O)Nc1c(C)nc2ccc(Cl)cn2c1=O |
| 576 | Cc1cc(N2CCN(C)CC2)nc2ccc(NC(=S)NCc3cccs3)cc12 |
| 801 | COc1ccc(S(=O)(=O)N2CCN(c3cc(C)nc(Nc4ccc(C)cc4)n3)CC2)cc1Cl |
| 823 | CC1=C(c2ccc(Cl)cc2)S(=O)(=O)N=C1N1CCCN(C(=O)c2ccco2)CC1 |
| 711 | COC(=O)c1c(N)n(CCc2ccccc2)c2nc3ccccc3nc12 |
| 1050 | O=C(NCCC1=CCCCC1)c1nnc(-c2ccc(S(=O)(=O)N3CCCC3)cc2)o1 |
| 769 | Cc1ccc(Nc2c(-c3ccc(N4CCOCC4)cc3)nc3cc(C)ccn23)cc1 |
| 858 | Cc1noc(C)c1S(=O)(=O)N1CCC(C(=O)NCCc2csc(-c3cccs3)n2)CC1 |
| 992 | COC(=O)c1cc2c(=O)n(-c3ccc(Cl)c(C(F)(F)F)c3)ccc2nc1C |
| 686 | Cc1ccsc1C(=O)N1CCCn2cc(-c3ccccc3)nc21 |
| 627 | CCN(CC)C(=O)c1cccnc1 |
| 693 | COc1cc2c(cc1OC)C(/C=C/c1ccco1)=NCC2 |
| 870 | O=C(NCC1CCCO1)C1CCN(c2ncccc2-c2nc(-c3ccccc3)no2)CC1 (stereo not drawn) |
| 927 | O=C(NCc1csc(-c2cccs2)n1)C1CCN(S(=O)(=O)c2ccc(Cl)cc2)CC1 |
| 799 | CCOc1ccccc1NC(=O)NCCn1c(C(F)(F)F)nc2cccnc21 |
| 698 | CN1C(=O)c2cc(C(=O)NCc3ccccc3F)nn2CC1(C)C(=O)NC1CCCC1 (stereo not drawn) |
| 760 | O=C(NCc1cccc(C(F)(F)F)c1)c1c[nH]c2ncccc12 |
| 680 | COc1cc(OC)cc(-c2nc(-c3ccc4c(c3)ncn4CCN3CCCCC3)no2)c1 |
| 701 | Cn1nc(C(=O)N2CCCC2)c2c1CCN(C(=O)CCC(=O)N1CCN(c3ccccc3)CC1)C2 |
| 697 | Cc1[nH]nc(-c2ccc(S(=O)(=O)NCCc3ccc(S(N)(=O)=O)cc3)o2)c1C |
| 880 | COc1ccc(S(=O)(=O)N2CCCC(C(=O)NCCCO)C2)cc1OC (stereo not drawn) |
